Test results: patent US20240366612A1, “COMPOUNDS AND METHODS FOR MODULATING NUCLEIC ACID SPLICING” (REMIX THERAPEUTICS INC., priority 2021, published 2024)
pIC50: −log10 of the molar value. Structures can show the parent of a compound that is named as a salt.

Tests used:
Format in all cases: cell-based
MYB CJ mRNA = test: Gene panel canonical junction qPCR assay, MYB; details: Homo sapiens, larger gene panel, read-out: MYB IC50 (decrease in CJ mRNA levels)
Description: (§1) Compounds described herein were used to modulate RNA transcript abundance in cells. The expression of a target mRNA was measured by detecting the formation of an exon-exon junction in the canonical transcript (CJ). A compound mediated exon-inclusion event was detected by observing an increase in formation of a new junction with an alternative exon (AJ). Real-time qPCR assays were used to detect these splicing switches and interrogate the potency of various compounds towards different target genes. A high-throughput real time quantitative PCR (RT-qPCR) assay was developed to measure these two isoforms of the mRNA (CJ and AJ) for exemplary genes, such as HTT, SMN2, and MYB, together with a control housekeeping gene, GAPDH or GUSB or PPIA, used for normalization. Briefly, the A673 or K562 cell line was treated with various compounds described herein (e.g., compounds of Formula (I)). After treatment, the levels of the HTT, MYB, or SMN2 mRNA targets were determined from each sample of cell lysate by cDNA synthesis followed by qPCR.
(§2) The A673 cell line was cultured in DMEM with 10% FBS. Cells were diluted with full growth media and plated in a 96-well plate (15,000 cells in 100 ul media per well). The plate was incubated at 37° C. with 5% CO2 for 24 hours to allow cells to adhere. An 11-point 3-fold serial dilution of the compounds was made in DMSO then diluted in media in an intermediate plate. Compounds were transferred from the intermediate plate to the cell plate with the top dose at a final concentration of 10 uM in the well. Final DMSO concentration was kept at or below 0.25%. The cell plate was returned to the incubator at 37° C. with 5% CO2 for an additional 24 hours.
(§3) The K562 cell line was cultured in IMDM with 10% FBS. For K562, cells were diluted with full growth media and plated in either a 96-well plate (50,000 cells in 50 uL media per well) or a 384-well plate (8,000-40,000 cells in 45 uL media per well). An 11-point 3-fold serial dilution of the compounds were made in DMSO then diluted in media in an intermediate plate. Compound was transferred from the intermediate plate to the cell plate with the top dose at a final concentration of 10 uM in the well. Final DMSO concentration was kept at or below 0.25%. Final volume was 100 uL for 96-well plate and 50 uL for 384-well plate. The cell plate was then placed in an incubator at 37° C. with 5% CO2 for 24 hours.
(§4) The data analysis was performed by first determining the ΔCt vs the housekeeper gene. This ΔCt was then normalized against the DMSO control (ΔΔCt) and converted to RQ (relative quantification) using the 2^(−ΔΔCt) equation. The RQ were then converted to a percentage response by arbitrarily setting an assay window of 3.5 and 4.0 ΔCt for HTT-CJ and MYB-CJ respectively and an assay window of 9 and 3 ΔCt for HTT-AJ and MYB-AJ in 96 well format (50,000 K562 cells/well and 15,000 A673 cells per well) and an assay window of 3 and 4 ΔCt for HTT-CJ and MYB-CJ respectively and an assay window of 5 and 3 ΔCt for HTT-AJ and MYB-AJ respectively in 384 well format (8,000 K562 cells/well example). […] The percentage response was then fitted to the 4 parametric logistic equation to evaluate the concentration dependence of compound treatment. The increase in AJ mRNA is reported as AC50 (compound concentration having […] in AJ increase) while the decrease in CJ mRNA levels is reported as IC50 (compound concentration having 50% response in CJ decrease).
(§5) Additional studies were carried out for a larger panel of genes using the protocol provided above. The junction between flanking upstream and downstream exons was used to design canonical junction qPCR assays. At least one of the forward primer, reverse primer or the CY5-labeled 5′ nuclease probe (with 3′ quencher such as ZEN/Iowa Black FQ) was designed to overlap with the exon junction to capture the CJ mRNA transcript. […]

Target C CJ mRNA = test: Gene panel canonical junction qPCR assay, Target C; details: Homo sapiens, larger gene panel, read-out: Target C IC50 (decrease in CJ mRNA levels)
Description: as §1, §2, §3, §4, §5

MYB mRNA = test: Splicing RT-qPCR assay, MYB canonical (CJ) and alternative (AJ) junction mRNA; details: Homo sapiens, A673 or K562 cells, 24 hours treatment; for pIC50: decrease in CJ mRNA; for AC50: increase in AJ mRNA
Description: as §1
(§6) • Cells-to-CT 1-step kit: ThermoFisher A25602, Cells-to-CT lysis reagent: ThermoFisher 4391851C, TaqMan™ Fast Virus 1-Step Master Mix: ThermoFisher 4444436 • GAPDH: VIC-PL, ThermoFisher 4326317E (Assay: Hs99999905_ml)—used for K562/suspension cell lines • GUSB: VIC-PL, ThermoFisher 4326320E (Assay: Hs99999908_ml)—used for K562/suspension cell lines • PPIA: VIC-PL, ThermoFisher 4326316E (Assay: Hs99999904_ml)—used for A673/adherent cell lines
as §2, §3
(§7) The cells were then gently washed with 50 uL-100 uL cold PBS before proceeding to addition of lysis buffer. 30 uL-50 μL of room temperature lysis buffer with DNAse I (and optionally RNAsin) was added to each well. Cells were shaken/mixed thoroughly at room temperature for 5-10 minutes for lysis to take place and then 3 uL-5 μL of room temperature stop solution was added and wells were shaken/mixed again. After 2-5 minutes, the cell lysate plate was transferred to ice for RT-qPCR reaction setup. The lysates could also be frozen at −80° C. for later use.
(§8) In some cases, a direct lysis buffer was used. An appropriate volume of 3×lysis buffer (10 mM Tris, 150 mM NaCl, 1.5%-2.5% Igepal and 0.1-1 U/uL RNAsin, pH 7.4) was directly added to either K562 or A673 cells in media and mixed by pipetting 3 times. The plates were then incubated at room temperature with shaking/rocking for 20-50 minutes to allow for lysis to take place. After this time, the cell lysate plate was transferred to ice to set up for the RT-qPCR reactions. The lysates could also be frozen at −80° C. for later use. […]

SMN2 CJ mRNA = test: Gene panel canonical junction qPCR assay, SMN2; details: Homo sapiens, larger gene panel, read-out: SMN2 IC50 (decrease in CJ mRNA levels)
Description: as §1, §2, §3, §4, §5

HTT mRNA = test: Splicing RT-qPCR assay, HTT canonical (CJ) and alternative (AJ) junction mRNA; details: Homo sapiens, A673 or K562 cells, 24 hours treatment; for pIC50: decrease in CJ mRNA; for AC50: increase in AJ mRNA
Description: as §1, §6, §2, §3, §7, §8

HTT CJ mRNA = test: Gene panel canonical junction qPCR assay, HTT; details: Homo sapiens, larger gene panel, read-out: HTT IC50 (decrease in CJ mRNA levels)
Description: as §1, §2, §3, §4, §5

Structure (SMILES) | pIC50 (MYB CJ mRNA) | pIC50 (Target C CJ mRNA) | pIC50 (MYB mRNA) | AC50 (MYB mRNA) [nM] | pIC50 (SMN2 CJ mRNA) | pIC50 (HTT mRNA) | AC50 (HTT mRNA) [nM] | pIC50 (HTT CJ mRNA)
Cc1cn2cc(-c3cc4ncn([C@H]5CCNC[C@@H]5F)c(=O)c4s3)cc(F)c2n1 (relative stereo) [Compound 272, trans-6-{8-fluoro-2-methylimidazo[1,2-a]pyridin-6-yl}-3-[3-fluoropiperidin-4-yl]thieno[3,2-d]pyrimidin-4-one] | 5.00 to 6.00 | < 5.00 | 5.00 to 6.00 | 1000 to 10000 | > 7.00 | 5.00 to 6.00 | > 10000 | 5.00 to 6.00
Cc1cn2cc(-c3cc4ncn([C@H]5CCNC[C@H]5F)c(=O)c4s3)cc(F)c2n1 (relative stereo) [Compound 273, cis-6-{8-fluoro-2-methylimidazo[1,2-a]pyridin-6-yl}-3-[3-fluoropiperidin-4-yl]thieno[3,2-d]pyrimidin-4-one] | 6.00 to 7.00 | 5.00 to 6.00 | 6.00 to 7.00 | 100 to 1000 | 6.00 to 7.00 | 6.00 to 7.00 | 1000 to 10000 | 6.00 to 7.00
Cc1cn2cc(-c3cc4ncn([C@H]5CCN[C@H](C)C5)c(=O)c4s3)cc(F)c2n1 (relative stereo) [Compound 277, 6-{8-fluoro-2-methylimidazo[1,2-a]pyridin-6-yl}-3-[(trans)-2-methylpiperidin-4-yl]thieno[3,2-d]pyrimidin-4-one] | 6.00 to 7.00 | 5.00 to 6.00 | 6.00 to 7.00 | 100 to 1000 | > 7.00 | 6.00 to 7.00 | 100 to 1000 | 6.00 to 7.00
Cc1cn2cc(-c3cc4ncn([C@H]5CCN[C@@H](C)C5)c(=O)c4s3)cc(F)c2n1 (relative stereo) [Compound 278, 6-{8-fluoro-2-methylimidazo[1,2-a]pyridin-6-yl}-3-[(cis)-2-methylpiperidin-4-yl]thieno[3,2-d]pyrimidin-4-one hydrochloride] | 6.00 to 7.00 | 6.00 to 7.00 | 6.00 to 7.00 | 100 to 1000 | > 7.00 | 6.00 to 7.00 | 100 to 1000 | 6.00 to 7.00
Cc1cc(-c2cc(=O)n3cc(N4CCN(C)CC4)sc3n2)cc2cn(C)nc12 [Compound 109, 7-(2,7-dimethyl-2H-indazol-5-yl)-2-(4-methylpiperazin-1-yl)-5H-thiazolo[3,2-a]pyrimidin-5-one] | < 5.00 | < 5.00 | < 5.00 | 1000 to 10000 | < 5.00 | < 5.00 | > 10000 | < 5.00
Cc1cc(-c2cc(=O)n3nc(N4CCN(C)CC4)sc3n2)cc2cn(C)nc12 [Compound 157, 7-(2,7-dimethyl-2H-indazol-5-yl)-2-(4-methylpiperazin-1-yl)-5H-[1,3,4]thiadiazolo[3,2-a]pyrimidin-5-one] | < 5.00 | < 5.00 | < 5.00 | > 10000 | < 5.00 | < 5.00 | > 10000 | < 5.00
Cc1cn2cc(-c3cc(=O)n4nc(N5CCN(C)CC5)sc4n3)cc(F)c2n1 [Compound 159, 7-(8-fluoro-2-methylimidazo[1,2-a]pyridin-6-yl)-2-(4-methylpiperazin-1-yl)-5H-[1,3,4]thiadiazolo[3,2-a]pyrimidin-5-one] | 5.00 to 6.00 | 5.00 to 6.00 | 5.00 to 6.00 | 1000 to 10000 | 5.00 to 6.00 | 5.00 to 6.00 | 1000 to 10000 | 5.00 to 6.00
Cc1cn2nc(-c3cc(=O)n4cc(N(C)C5CC(C)(C)NC(C)(C)C5)sc4n3)cc(C)c2n1 [Compound 205, 7-(2,8-dimethylimidazo[1,2-b]pyridazin-6-yl)-2-(methyl(2,2,6,6-tetramethylpiperidin-4-yl)amino)-5H-thiazolo[3,2-a]pyrimidin-5-one] | 5.00 to 6.00 | 5.00 to 6.00 | 5.00 to 6.00 | 1000 to 10000 | 5.00 to 6.00 | 5.00 to 6.00 | 1000 to 10000 | 5.00 to 6.00
Cc1cc(-c2nn3c(=O)cc(N4CCNCC4)nc3s2)cc2cn(C)nc12 [Compound 206, 2-(2,7-dimethyl-2H-indazol-5-yl)-7-(piperazin-1-yl)-5H-[1,3,4]thiadiazolo[3,2-a]pyrimidin-5-one] | 5.00 to 6.00 | 5.00 to 6.00 | 5.00 to 6.00 | 1000 to 10000 | 6.00 to 7.00 | 5.00 to 6.00 | 1000 to 10000 | 5.00 to 6.00
Cc1cn2cc(-c3cc(=O)n4cc(N5CCNC6(CC6)C5)sc4n3)cc(F)c2n1 [Compound 207, 7-(8-fluoro-2-methylimidazo[1,2-a]pyridin-6-yl)-2-(4,7-diazaspiro[2.5]octan-7-yl)-5H-thiazolo[3,2-a]pyrimidin-5-one] | 5.00 to 6.00 | < 5.00 | 5.00 to 6.00 | > 10000 | 6.00 to 7.00 | < 5.00 | > 10000 | < 5.00
Cc1cn2cc(-c3cn4c(=O)cc(N5CCNC6(CC6)C5)nc4s3)cc(F)c2n1 [Compound 208, 2-(8-fluoro-2-methylimidazo[1,2-a]pyridin-6-yl)-7-(4,7-diazaspiro[2.5]octan-7-yl)-5H-thiazolo[3,2-a]pyrimidin-5-one] | 5.00 to 6.00 | 5.00 to 6.00 | 5.00 to 6.00 | 1000 to 10000 | 5.00 to 6.00 | 5.00 to 6.00 | 1000 to 10000 | 5.00 to 6.00
Cc1cn2cc(-c3cc(=O)n4nc(N5CCNC6(CC6)C5)sc4n3)cc(F)c2n1 [Compound 209, 7-(8-fluoro-2-methylimidazo[1,2-a]pyridin-6-yl)-2-(4,7-diazaspiro[2.5]octan-7-yl)-5H-[1,3,4]thiadiazolo[3,2-a]pyrimidin-5-one] | 5.00 to 6.00 | 5.00 to 6.00 | 5.00 to 6.00 | 1000 to 10000 | 5.00 to 6.00 | 5.00 to 6.00 | 1000 to 10000 | 5.00 to 6.00
